Measured values from US20010031749A1, “Novel C-2 S/O-and S/N formaldehyde Acetal Derivatives of Carbapenem-3-carboxylic acids and their use as antibiotics and beta-lactamase inhibitors” (priority 1998, published 2001).

What was measured:
E. coli EC 225 = assay: β-Lactamase inhibition activity against resistant bacteria (MIC of ceftazidime without and with Ia); type: cell-based; details: Escherichia coli, EC225, enzyme TEM-5, read-out: MIC, CAZ alone
E. cloacae EB 131 = assay: as above; type: cell-based; details: Enterobacter cloacae, EB131, enzyme Type 1 Ceph'ase, read-out: MIC, CAZ alone
K. pneumoniae KL 140 = assay: as above; type: cell-based; details: Klebsiella pneumoniae, KL140, enzyme CAZ-ase, read-out: MIC, CAZ alone
E. coli EC 228 = assay: as above; type: cell-based; details: Escherichia coli, EC228, enzyme CAZ-ase, read-out: MIC, CAZ alone
K. pneumoniae KL 141 = assay: as above; type: cell-based; details: Klebsiella pneumoniae, KL141, enzyme CAZ-ase, read-out: MIC, CAZ alone
E. coli EC 227 = assay: as above; type: cell-based; details: Escherichia coli, EC227, enzyme CAZ-ase, read-out: MIC, CAZ alone
[1] = Oral activity: plasma level and half-life in mice after oral application; type: in vivo; details: mouse, dose 25 mg per kg, potassium salt
[2] = molecular target: T1, β-Lactamase from Enterobacter cloacae (Enterobacter cloacae, UniProt P05364); assay: β-Lactamase inhibition against isolated (cell free) enzymes, nitrocefin method; type: biochemical; details: 37° C., 15 min preincubation of enzyme and inhibitor
T1 construct: bacterial β-lactamases isolated from Enterobacter cloacae and Escherichia coli; host or cells: Enterobacter cloacae (enzyme isolated, cell free)
T1 sequence (P05364 21-381): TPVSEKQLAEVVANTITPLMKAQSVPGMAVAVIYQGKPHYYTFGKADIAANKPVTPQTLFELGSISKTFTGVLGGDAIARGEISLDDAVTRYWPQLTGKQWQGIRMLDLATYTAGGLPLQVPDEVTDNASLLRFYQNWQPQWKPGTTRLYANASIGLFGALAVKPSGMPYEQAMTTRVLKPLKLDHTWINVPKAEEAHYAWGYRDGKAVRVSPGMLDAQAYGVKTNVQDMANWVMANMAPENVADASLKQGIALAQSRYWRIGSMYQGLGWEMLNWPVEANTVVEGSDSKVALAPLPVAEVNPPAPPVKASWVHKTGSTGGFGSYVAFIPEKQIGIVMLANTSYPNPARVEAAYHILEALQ
Source text: (§1) Moreover, all tested ceftazidime resistant Gram-negative pathogens became susceptible to a combination of ceftazidime and the compounds according to the invention. Thus, these compounds are also very potent β-lactamase inhibitors. The very high activity as β-lactamase inhibitors of the compounds I according to the invention was also observed with isolated bacterial enzymes in the nitrocefin test (R. Reimer, Methodicum Chimicum: Antibiotics, Vitamins and Hormons; F. Korte, M. Goto, eds., Thieme, Stuttgart, 1977, p.11, E. Wasielewski, Arzneimittel, Vol. 4; Chemotherapeutica, Part 1, Verlag Chemie, Weinheim 1972).
(§2) IC50 values were determined in a 1 cm UV cell at 37° C. after a 15 min preincubation period of enzyme and the inhibitor.

[3] = molecular target: T2, Penicillinase from E. coli TEM 1 (Escherichia coli, UniProt P62593); assay: as above; type: biochemical
T2 construct: bacterial β-lactamases isolated from Enterobacter cloacae and Escherichia coli; host or cells: Escherichia coli (enzyme isolated, cell free)
T2 sequence (P62593 24-286 limits assumed): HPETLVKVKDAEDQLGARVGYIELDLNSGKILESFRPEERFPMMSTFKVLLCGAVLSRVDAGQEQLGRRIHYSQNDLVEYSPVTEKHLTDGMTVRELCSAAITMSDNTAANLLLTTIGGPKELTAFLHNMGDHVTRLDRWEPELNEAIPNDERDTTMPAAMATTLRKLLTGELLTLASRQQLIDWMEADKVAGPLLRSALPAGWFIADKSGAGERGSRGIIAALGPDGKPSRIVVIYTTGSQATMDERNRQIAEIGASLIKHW
Source text: as §1, §2

[4] = Stability in phosphate buffer (half-life of hydrolysis, UV method); type: physicochemical; details: for half-life: physiological phosphate buffer pH 7.4 and 37° C., UV method
[5] = system: Pseudomonas aer. DSM 1117; assay: In vitro antibacterial activity, plate test (inhibition diameter); type: cell-based, Pseudomonas aeruginosa; details: 10 μg, Difco Nutrient Agar, 18 hrs at 37° C.
Protocol: (§3) The tests were carried out in sterile polypropylene dishes (diameter 8.5 cm) containing 10 ml of Difco Nutrient Agar. Inhibition was recorded after 18 hrs at 37° C. (inoculum ca. […] cells).

[6] = system: Pseudomonas aer. resistant; assay: as above; type: cell-based, Pseudomonas aeruginosa; details: 10 μg, Difco Nutrient Agar, 18 hrs at 37° C.
Protocol: as §3

Staph. aureus 25768 = assay: as above; type: cell-based; details: 10 μg, Difco Nutrient Agar, 18 hrs at 37° C.
Protocol: as §3

[7] = system: Escherichia coli DSM 1103; assay: as above; type: cell-based; details: 10 μg, Difco Nutrient Agar, 18 hrs at 37° C.
Protocol: as §3

Escherichia coli TEM 1 = assay: as above; type: cell-based; details: 10 μg, Difco Nutrient Agar, 18 hrs at 37° C.
Protocol: as §3

Staph. aureus resistant = assay: as above; type: cell-based; details: 10 μg, Difco Nutrient Agar, 18 hrs at 37° C.
Protocol: as §3

Staph. aureus DSM 1104 = assay: as above; type: cell-based; details: 10 μg, Difco Nutrient Agar, 18 hrs at 37° C.
Protocol: as §3

Staph. aureus Innsbruck = assay: as above; type: cell-based; details: 10 μg, Difco Nutrient Agar, 18 hrs at 37° C.
Protocol: as §3

Enterococcus = assay: as above; type: cell-based; details: 10 μg, Difco Nutrient Agar, 18 hrs at 37° C.
Protocol: as §3

[8] = system: Enterobacter cloacae DSM 30054; assay: as above; type: cell-based; details: 10 μg, Difco Nutrient Agar, 18 hrs at 37° C.
Protocol: as §3

Sacharomyces cerevisiae = assay: Cytotoxicity, agar diffusion method; type: cell-based; details: 1.0 mg, yeast and mold agar, 16 hrs at 30° C.
Protocol: Sterile PP dishes of 8.5 cm diameter containing 10 ml of yeast and mold agar were used. Cytotoxicity was recorded after a 16 hrs incubation period at 30° C. (inoculum approx. 10^5 cells).

| SMILES | IC50 [2] [µM] | IC50 [3] [µM] | half-life [4] [h] | inhibition diameter [5] [mm] | inhibition diameter [6] [mm] | inhibition diameter (Staph. aureus 25768) [mm] | inhibition diameter [7] [mm] | inhibition diameter (Escherichia coli TEM 1) [mm] | inhibition diameter (Staph. aureus resistant) [mm] | inhibition diameter (Staph. aureus DSM 1104) [mm] | inhibition diameter (Staph. aureus Innsbruck) [mm] | inhibition diameter (Enterococcus) [mm] | inhibition diameter [8] [mm] | inhibition diameter (cytotoxicity) (Sacharomyces cerevisiae) [mm] | also measured |
| --- | --- | --- | --- | --- | --- | --- | --- | --- | --- | --- | --- | --- | --- | --- | --- |
| CC(C)(O/N=C(\C(=O)N[C@@H]1C(=O)N2C(C(=O)[O-])=C(C[n+]3ccccc3)CS[C@H]12)c1csc(N)n1)C(=O)O [CAZ, ceftazidime] | – | – | – | – | – | – | – | – | – | – | – | – | – | – | MIC (E. coli EC 225): 64 µg/mL; MIC (E. cloacae EB 131): > 64 µg/mL; MIC (K. pneumoniae KL 140): > 64 µg/mL; MIC (E. coli EC 228): 16 µg/mL; MIC (K. pneumoniae KL 141): > 64 µg/mL; MIC (E. coli EC 227): > 64 µg/mL |
| COCSC1=C(C(=O)O)N2C(=O)[C@H]([C@@H](C)O)[C@H]2[C@H]1C [Ia, Potassium (4R,5S,6S)-6-((1′R)-hydroxyethyl)-3-(methoxymethylthio)-4-methyl-7-oxo-1-azabicyclo[3.2.0]hept-2-ene-2-carboxylate] | 0.004 | 0.2 | 50 | – | – | – | – | – | – | – | – | – | – | – | concentration at 10 min ([1]; plasma): 5600 ng/mL; half-life ([1]; serum, 25 mg/kg, read-out: Approximative serum half-life): 0.417 h |
| CC(O)C1C(=O)N2C(C(=O)O)=C(SCOCCN)C(C)C12 (centres unmarked) [Ib] | 0.0085 | 0.55 | 50 | 27 | 17 | 28 | 30 | 33 | 35 | 39 | 9 | 21 | 26 | 0 | – |
| CC(O)C1C(=O)N2C(C(=O)O)=C(SCOCCNC=N)C(C)C12 [Ic, (4R,5S,6S)-3-((2-(Formimidoylamino)ethoxv)methylthio)-((1′R)-hydroxyethyl)-4-methyl-7-oxo-1-azabicyclo[3.2.0]hept-2-ene-2-carboxylic acid] | – | – | 35 | 25 | 13 | 26 | 30 | 33 | 35 | 39 | 8 | 21 | 25 | – | – |
| CC(O)C1C(=O)N2C(C(=O)O)=C(SCOC(C)(C)CN)C(C)C12 [Id, (4R,5S,6S)-3-((2-amino-1,1-dimethylethoxy)methylthio)-6-((1′R)-hydroxyethyl)-4-methyl-7-oxo-1-azabicyclo[3.2.0]hept-2-ene-2-carboxylic acid] | – | – | 50 | – | – | – | – | – | – | – | – | – | – | – | – |
| CC(=O)NCSC1=C(C(=O)O)N2C(=O)[C@H]([C@@H](C)O)[C@H]2[C@H]1C [Ie, Potassium (4R,5S,6S)-3-(acetamidomethylthio)-((1′R)-hydroxyethyl)-4-methyl-7-oxo-1-azabicyclo[3.2.0]hept-2-ene-2-carboxylate] | 0.006 | 0.3 | 40 | 16 | – | 27 | 32 | 34 | 32 | 36 | – | 18 | 27 | 0 | – |
| CC(O)C1C(=O)N2C(C(=O)O)=C(SCNC(=O)CN)C(C)C12 [If, (4R,5S,6S)-3-((2-Aminoacetamido)methylthio-6-((1′R)-hydroxyethyl)-4-methyl-7-oxo-1-azabicyclo[3.2.0]hept-2-ene-2-carboxylic acid] | – | – | 16 | 18 | 14 | 25 | 27 | 33 | 30 | 33 | 12 | 20 | 23 | 0 | – |
| CCN1CCN(CSC2=C(C(=O)[O-])N3C(=O)[C@H]([C@@H](C)O)[C@H]3[C@H]2C)C(=O)C1=O.[K+] [Ig, Potassium (4R,5S,6S)-3-((2,3-dioxo-4-ethyl-piperazinyl)methylthio)-6-((1′R)-hydroxyethyl)-4-methyl-7-oxo-1-azabicyclo[3.2.0]hept-2-ene-2-carboxylate] | – | – | – | – | – | – | – | – | – | – | – | – | – | – | half-life of hydrolysis ([4]; buffer, pH 7.4): 42 h |
